Data from PMC8260761, “A bacteriocin-based treatment option for Staphylococcus haemolyticus biofilms” (Scientific Reports, 2021).

Legend:
Assay in all cases: Spot-on-lawn inhibition assay
Assay type in all cases: cell-based
[1] = system: S. uberis; parameters: key: –: “−” = No inhibition; “+” = Unclear zone; “++” = zone < 1 cm; “+++” = zone ≥ 1 cm; conditions: S. uberis 7904-3; 5 µl at 1 mg/ml; n=3
Description: (§1) A semi-quantitative spot-on-lawn inhibitory assay was performed on 51 bacterial indicator strains (Table S1) to determine the bacteriocins inhibition spectra. Overnight cultures were diluted 1:100 in BHI soft agar and distributed on BHI agar plates. Once solidified, bacteriocins with various concentrations were applied on designated spots. The plates were incubated at appropriate temperature O/N and inhibition zones were measured the following day. To determine minimal inhibitory concentration (MIC50) of H1 against clinical S. haemolyticus isolates (Table S2), as well as strains heterologously expressing RseP (Table S4), the microtiterplate antimicrobial assay was performed as previously described[41],[79]. MIC50 was defined as the minimal bacteriocin concentration needs to inhibit the growth of a bacterial strain by at least 50%.

[2] = system: C. piscicola; parameters: key: –: “−” = No inhibition; “+” = Unclear zone; “++” = zone < 1 cm; “+++” = zone ≥ 1 cm; conditions: C. piscicola LMG 2332; 5 µl at 1 mg/ml; n=3
Description: as §1

[3] = system: L. monocytogenes; parameters: key: –: “−” = No inhibition; “+” = Unclear zone; “++” = zone < 1 cm; “+++” = zone ≥ 1 cm; conditions: L. monocytogenes EDGe; 5 µl at 1 mg/ml; n=3
Description: as §1

[4] = system: Bacillus cereus; parameters: key: –: “−” = No inhibition; “+” = Unclear zone; “++” = zone < 1 cm; “+++” = zone ≥ 1 cm; conditions: 5 µl at 1 mg/ml, n=3
Description: as §1

[5] = system: S. epidermidis; parameters: key: “-“ = No inhibition; “+” = Unclear zone; “++” = zone < 1 cm; “+++”= zone > 1 cm; conditions: S. epidermidis LMG 3522; 5 µl at 1 mg/ml; n=3
Description: as §1

[6] = system: Carnobacterium divergens; parameters: key: “-“ = No inhibition; “+” = Unclear zone; “++” = zone < 1 cm; “+++”= zone > 1 cm; conditions: Carnobacterium divergens NCDO 2306; 5 µl at 1 mg/ml; n=3
Description: as §1

[7] = system: Staphylococcus arlettae; parameters: key: “-“ = No inhibition; “+” = Unclear zone; “++” = zone < 1 cm; “+++”= zone > 1 cm; conditions: Staphylococcus arlettae LMG 4134; 5 µl at 1 mg/ml; n=3
Description: as §1

[8] = system: L. sakei; parameters: key: “-“ = No inhibition; “+” = Unclear zone; “++” = zone < 1 cm; “+++”= zone > 1 cm; conditions: 5 µl at 1 mg/ml, n=3
Description: as §1

[9] = system: Staphylococcus haemolyticus strains; parameters: key to Average inhibition score: –: “−” = No inhibition; “+” = Unclear zone; “++” = zone < 1 cm; “+++” = zone ≥ 1 cm
Description: as §1

## MKFKFNPTGTIVKKLTQYEIAWFKNKHGYYPWEIPRC [K1, enterocin K1]
[1]
  Average inhibition score: +
[2]
  Average inhibition score: +
[3]
  Average inhibition score: +
[4]; B. cereus LMG 2711
  Average inhibition score: +
[4]; B. cereus LMG 2731
  Average inhibition score: +
[4]; Bacillus cereus LMG 2805
  Average inhibition score: +
[5]
  Average inhibition score: -
[6]
  Average inhibition score: -
[7]
  Average inhibition score: -
[8]; L. sakei 148
  Average inhibition score: +++ (“+++”= zone > 1 cm)
[8]; L. sakei LMG 2380
  Average inhibition score: ++ (“++” = zone < 1 cm)
[9]; S. haemolyticus 4068, 5 μl at 1 mg/ml, n = 3
  Average inhibition score: –
[9]; S. haemolyticus 4069, 5 μl at 1 mg/ml, n = 3
  Average inhibition score: –
[9]; S. haemolyticus 4070, 5 μl at 1 mg/ml, n = 3
  Average inhibition score: –
[9]; S. haemolyticus 4071, 5 μl at 1 mg/ml, n = 3
  Average inhibition score: –
[9]; S. haemolyticus 4072, 5 μl at 1 mg/ml, n = 3
  Average inhibition score: –
[9]; S. haemolyticus 4073, 5 μl at 1 mg/ml, n = 3
  Average inhibition score: –
[9]; S. haemolyticus 7067_4_21, 5 μl at 1 mg/ml, n = 3
  Average inhibition score: –
[9]; S. haemolyticus 7067_4_28, 5 μl at 1 mg/ml, n = 3
  Average inhibition score: –
[9]; S. haemolyticus 7067_4_39, 5 μl at 1 mg/ml, n = 3
  Average inhibition score: –
[9]; S. haemolyticus 7067_4_48, 5 μl at 1 mg/ml, n = 3
  Average inhibition score: –
[9]; S. haemolyticus 7067_4_49, 5 μl at 1 mg/ml, n = 3
  Average inhibition score: –
[9]; S. haemolyticus 7067_4_56, 5 μl at 1 mg/ml, n = 3
  Average inhibition score: –
[9]; S. haemolyticus 7067_4_60, 5 μl at 1 mg/ml, n = 3
  Average inhibition score: ++ (“++” = zone < 1 cm)
[9]; S. haemolyticus 7067_4_66, 5 μl at 1 mg/ml, n = 3
  Average inhibition score: –
[9]; S. haemolyticus 7067_4_67, 5 μl at 1 mg/ml, n = 3
  Average inhibition score: –
[9]; S. haemolyticus 7067_4_71, 5 μl at 1 mg/ml, n = 3
  Average inhibition score: –
[9]; S. haemolyticus 7067_4_84, 5 μl at 1 mg/ml, n = 3
  Average inhibition score: –
[9]; S. haemolyticus 7068_7_63, 5 μl at 1 mg/ml, n = 3
  Average inhibition score: –
[9]; S. haemolyticus LMG 4133, 5 µl at 1 mg/ml, n=3
  Average inhibition score: +
[9]; S. haemolyticus SH01, 5 μl at 1 mg/ml, n = 3
  Average inhibition score: –
[9]; S. haemolyticus SH04, 5 μl at 1 mg/ml, n = 3
  Average inhibition score: –
[9]; S. haemolyticus SH09, 5 μl at 1 mg/ml, n = 3
  Average inhibition score: –
[9]; S. haemolyticus SH10, 5 μl at 1 mg/ml, n = 3
  Average inhibition score: +
[9]; S. haemolyticus SH14, 5 μl at 1 mg/ml, n = 3
  Average inhibition score: –
[9]; S. haemolyticus SH20, 5 μl at 1 mg/ml, n = 3
  Average inhibition score: +
[9]; S. haemolyticus SH46, 5 μl at 1 mg/ml, n = 3
  Average inhibition score: –
[9]; S. haemolyticus SH47, 5 μl at 1 mg/ml, n = 3
  Average inhibition score: +
[9]; six S. haemolyticus strains 4068–4073, 0.04, 0.2 and 1.0 mg/ml, 5 µl spotted
  Inhibition zones at three concentrations: did not result in any inhibition
